Among the data in publication PMC6537165 (Slas Discovery, 2019) are IC50 values, retold here.

Structures are written as SMILES.

In general, IC50 refers to the concentration that gives 50% inhibition.

In the assay the test system is Wolbachia pipientis (wAlbB) in C6/36 (wAlbB) cells. In words: acumen high-throughput anti-Wolbachia assay. The class given is cell-based. To be noted: C6/36, 168 h, read-out: anti-Wolbachia IC50 in the acumen assay.

Regarding `C[C@H]1c2cccc(O)c2C(=O)C2=C(O)[C@]3(O)C(=O)C(C(N)=O)=C(O)[C@@H](N(C)C)[C@@H]3[C@@H](O)[C@@H]21` [Doxycycline, doxycycline], the IC50 was determined as 17.8 nM.
